DBAASP
In brackets after ≈: the same amount, converted by molar mass. One block for each compound: values may come before it.

Tests used:
Assay in all cases: ≥ marks a high value that may be exact or a test limit, other limits are often not marked, values filed in µg/mL are converted to µM
[1] = test system: Bacillus subtilis
[2] = test system: Escherichia coli
[3] = test system: Klebsiella pneumoniae
[4] = test system: Micrococcus luteus
[5] = test system: Proteus mirabilis
[6] = test system: Pseudomonas aeruginosa
[7] = test system: Salmonella typhimurium
[8] = test system: Shigella dysenteriae
[9] = test system: Staphylococcus aureus
[10] = test system: Staphylococcus epidermidis
[11] = test system: Escherichia coli JW0013
[12] = test system: Clavibacter michiganensis subsp. michiganensis DSM 46294
[13] = test system: Pectobacterium carotovorum subsp. carotovorum DSM 30168
[14] = test system: Pseudomonas corrugata DSM 7228
[15] = test system: Pseudomonas syringae pv. syringae DSM 10604
[16] = test system: Pseudomonas syringae pv. tomato DC3000
[17] = test system: Xanthomonas vesicatoria DSM 50861
[18] = test system: Escherichia coli BL21
[19] = test system: Pseudomonas aeruginosa PAO1

Compound: CC(C)C[C@H](NC(=O)[C@H](C)NC(=O)CNC(=O)[C@H](CC(C)C)NC(=O)[C@@H](N)Cc1ccccc1)C(=O)N[C@@H](Cc1ccccc1)C(=O)N[C@@H](CCCCN)C(=O)N[C@@H](CCCCN)C(=O)N[C@@H](C)C(=O)N[C@@H](CO)C(=O)N[C@@H](CCCCN)C(=O)O [FLGALFKKASK]
MIC [1]: ≥ 82.7 µM | MIC [2]: > 165 µM | MIC [3]: > 165 µM | MIC [4]: 10.3 µM (≈ 12.5 µg/mL) | MIC [5]: ≥ 165 µM | MIC [6]: > 165 µM | MIC [7]: ≥ 165 µM | MIC [8]: ≥ 165 µM | MIC [9]: 165 µM (≈ 200 µg/mL) | MIC [10]: ≥ 165 µM

Compound: CC[C@H](C)[C@H](NC(=O)[C@H](CCCN=C(N)N)NC(=O)[C@H](CCCN=C(N)N)NC(=O)[C@@H]1CCCN1C(=O)[C@@H]1CCCN1C(=O)[C@H](CCCN=C(N)N)NC(=O)[C@@H]1CCCN1C(=O)[C@H](CCCN=C(N)N)NC(=O)[C@@H]1CCCN1C(=O)[C@H](CC(C)C)NC(=O)[C@H](Cc1ccc(O)cc1)NC(=O)[C@@H]1CCCN1C(=O)[C@@H]1CCCN1C(=O)[C@H](CCCCN)NC(=O)[C@H](CC(=O)O)NC(=O)[C@@H](N)CCCCN)C(=O)N[C@@H](Cc1ccc(O)cc1)C(=O)N[C@@H](CC(N)=O)C(=O)N[C@@H](CCCN=C(N)N)C(N)=O [KDKPPYLPRPRPPRRIYNR]
MIC [11]: 1.98 µM (≈ 4.8 µg/mL)

Compound: CC(C)C[C@H](NC(=O)[C@H](C)NC(=O)[C@H](Cc1ccccc1)NC(=O)[C@H](CCCN=C(N)N)NC(=O)[C@H](Cc1ccccc1)NC(=O)[C@H](C)NC(=O)[C@H](CCCN=C(N)N)NC(=O)[C@H](Cc1ccccc1)NC(=O)[C@H](C)NC(=O)[C@H](CC(C)C)NC(=O)[C@H](CCCCN)NC(=O)[C@H](CCCN=C(N)N)NC(=O)[C@H](CCCN=C(N)N)NC(=O)[C@@H](N)CCCCN)C(=O)N[C@@H](CCCCN)C(=O)N[C@@H](C)C(=O)N[C@H](C(=O)N[C@@H](CC(C)C)C(=O)N[C@@H](CCCCN)C(=O)N[C@@H](CCCCN)C(N)=O)C(C)C [KRRKLAFRAFRFALKAVLKK]
MIC [12]: 0.204 µM (≈ 0.5 µg/mL) | MIC [13]: 4.08 µM (≈ 10 µg/mL) | MIC [14]: 0.102 µM (≈ 0.25 µg/mL) | MIC [15]: 0.204 µM (≈ 0.5 µg/mL) | MIC [16]: 1.02 µM (≈ 2.5 µg/mL) | MIC [17]: 0.102 µM (≈ 0.25 µg/mL)

Compound: CC[C@H](C)[C@H](NC(=O)[C@H](CCCN=C(N)N)NC(=O)[C@H](CCCN=C(N)N)NC(=O)[C@@H]1CCCN1C(=O)[C@@H]1CCCN1C(=O)[C@H](CCCN=C(N)N)NC(=O)[C@@H]1CCCN1C(=O)[C@H](CCCN=C(N)N)NC(=O)[C@@H]1CCCN1C(=O)[C@H](CC(C)C)NC(=O)[C@H](Cc1ccc(O)cc1)NC(=O)[C@@H]1CCCN1C(=O)[C@H](CCC(N)=O)NC(=O)[C@H](CCCCN)NC(=O)[C@H](CC(=O)O)NC(=O)[C@@H](N)C(C)C)C(=O)N[C@@H](Cc1ccc(O)cc1)C(=O)N[C@@H](CC(N)=O)C(=O)N[C@@H](CCCN=C(N)N)C(N)=O [VDKQPYLPRPRPPRRIYNR]
MIC [11]: 1.28 µM (≈ 3.1 µg/mL)

Compound: CC[C@H](C)[C@H](NC(=O)[C@H](C)NC(=O)[C@H](Cc1ccccc1)NC(=O)[C@H](CCCCN)NC(=O)[C@@H](N)C(C)C)C(=O)N[C@@H](CCCCN)C(=O)N[C@@H](CCCCN)C(=O)N[C@H](C(=O)NCC(=O)N[C@@H](CCCCN)C(=O)N[C@@H](CCCCN)C(=O)N[C@@H](C)C(=O)N[C@@H](C)C(=O)N[C@@H](CCCCN)C(=O)N[C@@H](CCCCN)C(=O)N[C@H](C(=O)N[C@H](C(=O)N[C@H](C(=O)N[C@@H](CCCCN)C(=O)N[C@@H](C)C(=O)O)C(C)C)[C@@H](C)CC)C(C)C)[C@@H](C)CC [VKFAIKKIGKKAAKKVIVKA]
MIC [18]: ≥ 128 µM | MIC [19]: 32 µM (≈ 69.4 µg/mL)

Results, then the compound that gave them:

MIC [1]: ≥ 207 µM | MIC [2]: > 207 µM | MIC [3]: > 207 µM | MIC [4]: ≥ 207 µM | MIC [5]: ≥ 207 µM | MIC [6]: > 207 µM | MIC [7]: ≥ 207 µM | MIC [8]: ≥ 207 µM | MIC [9]: > 207 µM | MIC [10]: ≥ 207 µM
Compound: CC(C)C[C@H](NC(=O)[C@H](C)NC(=O)CNC(=O)[C@H](CC(C)C)NC(=O)[C@@H](N)Cc1ccccc1)C(=O)N[C@@H](Cc1ccccc1)C(=O)N[C@@H](CCCCN)C(=O)N[C@H](C(=O)N[C@@H](C)C(=O)O)C(C)C [FLGALFKVA]

MIC [1]: ≥ 164 µM | MIC [2]: 164 µM (≈ 200 µg/mL) | MIC [3]: 82 µM (≈ 100 µg/mL) | MIC [4]: ≥ 164 µM | MIC [5]: ≥ 164 µM | MIC [6]: > 164 µM | MIC [7]: ≥ 164 µM | MIC [8]: ≥ 164 µM | MIC [9]: 82 µM (≈ 100 µg/mL) | MIC [10]: ≥ 164 µM
Compound: CC(C)C[C@H](NC(=O)[C@H](C)NC(=O)CNC(=O)[C@H](CC(C)C)NC(=O)[C@@H](N)Cc1ccccc1)C(=O)N[C@@H](Cc1c[nH]c2ccccc12)C(=O)N[C@@H](CCCCN)C(=O)N[C@H](C(=O)N[C@@H](C)C(=O)N[C@@H](CO)C(=O)N[C@@H](CCCCN)C(=O)O)C(C)C [FLGALWKVASK]

MIC [12]: 0.103 µM (≈ 0.25 µg/mL) | MIC [13]: 4.11 µM (≈ 10 µg/mL) | MIC [14]: 0.103 µM (≈ 0.25 µg/mL) | MIC [15]: 4.11 µM (≈ 10 µg/mL) | MIC [16]: 4.11 µM (≈ 10 µg/mL) | MIC [17]: 0.0411 µM (≈ 0.0999 µg/mL)
Compound: CC[C@H](C)[C@H](NC(=O)[C@H](C)NC(=O)[C@H](CCCCN)NC(=O)[C@H](C)NC(=O)[C@@H](NC(=O)[C@H](CC(C)C)NC(=O)[C@H](CCCCN)NC(=O)[C@H](CC(C)C)NC(=O)[C@@H](NC(=O)[C@H](CCCCN)NC(=O)[C@@H](NC(=O)[C@H](C)NC(=O)[C@H](CCCCN)NC(=O)[C@H](CCCN=C(N)N)NC(=O)[C@H](CCCN=C(N)N)NC(=O)[C@@H](N)CCCCN)[C@@H](C)CC)[C@@H](C)CC)[C@@H](C)CC)C(=O)N[C@@H](CCCN=C(N)N)C(=O)N[C@@H](CCCCN)C(=O)N[C@@H](CCCCN)C(=O)N[C@@H](CCCN=C(N)N)C(N)=O [KRRKAIKILKLIAKAIRKKR]

MIC [12]: 0.0414 µM (≈ 0.0999 µg/mL) | MIC [13]: 4.14 µM (≈ 10 µg/mL) | MIC [14]: 0.103 µM (≈ 0.25 µg/mL) | MIC [15]: 4.14 µM (≈ 10 µg/mL) | MIC [16]: 0.414 µM (≈ 1 µg/mL) | MIC [17]: 0.0414 µM (≈ 0.0999 µg/mL)
Compound: CC(C)C[C@H](NC(=O)[C@H](C)NC(=O)[C@H](CC(C)C)NC(=O)[C@H](CCCN=C(N)N)NC(=O)[C@H](CCCN=C(N)N)NC(=O)[C@@H](N)CCCCN)C(=O)N[C@@H](Cc1ccccc1)C(=O)N[C@@H](CCCN=C(N)N)C(=O)N[C@@H](C)C(=O)N[C@@H](Cc1ccccc1)C(=O)N[C@@H](CCCN=C(N)N)C(=O)N[C@@H](CC(C)C)C(=O)N[C@@H](C)C(=O)N[C@@H](CC(C)C)C(=O)N[C@@H](CCCCN)C(=O)N[C@@H](CO)C(=O)N[C@H](C(=O)N[C@@H](CC(C)C)C(=O)N[C@@H](CCCCN)C(=O)N[C@@H](CCCCN)C(N)=O)C(C)C [KRRLALFRAFRLALKSVLKK]

MIC [12]: 0.146 µM (≈ 0.25 µg/mL) | MIC [13]: 5.86 µM (≈ 9.99 µg/mL) | MIC [14]: 0.0586 µM (≈ 0.1 µg/mL) | MIC [15]: 0.0586 µM (≈ 0.1 µg/mL) | MIC [16]: 1.46 µM (≈ 2.5 µg/mL) | MIC [17]: 0.293 µM (≈ 0.5 µg/mL)
Compound: NCCCC[C@H](NC(=O)[C@H](Cc1ccccc1)NC(=O)[C@H](Cc1ccccc1)NC(=O)[C@H](CCCCN)NC(=O)[C@H](Cc1ccccc1)NC(=O)[C@H](CCCCN)NC(=O)[C@H](CCCCN)NC(=O)[C@H](CCCCN)NC(=O)[C@@H](N)CCCN=C(N)N)C(=O)N[C@@H](CCCN=C(N)N)C(=O)N[C@@H](Cc1ccccc1)C(=O)N[C@@H](Cc1ccccc1)C(N)=O [RKKKFKFFKRFF]

MIC [11]: 1.99 µM (≈ 4.8 µg/mL)
Compound: CC[C@H](C)[C@H](NC(=O)[C@H](CCCN=C(N)N)NC(=O)[C@H](CCCN=C(N)N)NC(=O)[C@@H]1CCCN1C(=O)[C@@H]1CCCN1C(=O)[C@H](CCCN=C(N)N)NC(=O)[C@@H]1CCCN1C(=O)[C@H](CCCN=C(N)N)NC(=O)[C@@H]1CCCN1C(=O)[C@H](CC(C)C)NC(=O)[C@H](Cc1ccc(O)cc1)NC(=O)[C@H](CC(N)=O)NC(=O)[C@@H]1CCCN1C(=O)[C@H](CCCCN)NC(=O)[C@H](CC(=O)O)NC(=O)[C@@H](N)C(C)C)C(=O)N[C@@H](Cc1ccc(O)cc1)C(=O)N[C@@H](CC(N)=O)C(=O)N[C@@H](CCCN=C(N)N)C(N)=O [VDKPNYLPRPRPPRRIYNR]
